#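 96-well plates; 48 h exposure; 5 concentrations. Endpoints by linear interpolation between flanking doses. Not reached: highest tested concentration assigned. The concentration for 50% growth inhibition is given as GI50. The concentration for full growth arrest is given as TGI.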
# Tests used:
# Test in all cases: DTP human tumour cell line panel, 48 h
# SK-OV-3 ovarian = test system: SK-OV-3 ovarian
# SF-539 CNS = test system: SF-539 CNS
# SK-MEL-5 melanoma = test system: SK-MEL-5 melanoma
# SW-620 colon = test system: SW-620 colon
# T-47D breast = test system: T-47D breast
# MDA-MB-231 breast = test system: MDA-MB-231 breast
# IGROV1 ovarian = test system: IGROV1 ovarian
# MCF7 breast = test system: MCF7 breast
# BT-549 breast = test system: BT-549 breast
# OVCAR-4 ovarian = test system: OVCAR-4 ovarian
# MALME-3M melanoma = test system: MALME-3M melanoma
# U251 CNS = test system: U251 CNS
# SK-MEL-28 melanoma = test system: SK-MEL-28 melanoma
# MOLT-4 leukemia = test system: MOLT-4 leukemia
# LOX IMVI melanoma = test system: LOX IMVI melanoma
# SK-MEL-2 melanoma = test system: SK-MEL-2 melanoma
# PC-3 prostate = test system: PC-3 prostate
# RPMI-8226 leukemia = test system: RPMI-8226 leukemia
# K-562 leukemia = test system: K-562 leukemia
# A498 renal = test system: A498 renal
# HL-60(TB) leukemia = test system: HL-60(TB) leukemia
# 786-0 renal = test system: 786-0 renal
# NCI-H226 lung = test system: NCI-H226 lung
# HS 578T breast = test system: HS 578T breast
# UACC-62 melanoma = test system: UACC-62 melanoma
# HCC-2998 colon = test system: HCC-2998 colon
# A549 NSCLC = test system: A549 NSCLC
# CAKI-1 renal = test system: CAKI-1 renal
# RXF 393 renal = test system: RXF 393 renal
smiles,measurement,setting,value
Cn1c(=O)c(Oc2ccc(F)cc2)cc2cnc(NC3CCOCC3)nc21,GI50,SK-OV-3 ovarian,> 25 µM
same,TGI,SK-OV-3 ovarian,> 25 µM
same,GI50,SF-539 CNS,> 25 µM
same,TGI,SF-539 CNS,> 25 µM
same,GI50,SK-MEL-5 melanoma,> 25 µM
same,TGI,SK-MEL-5 melanoma,> 25 µM
same,GI50,SW-620 colon,> 25 µM
same,TGI,SW-620 colon,> 25 µM
same,GI50,T-47D breast,22.2 µM
same,TGI,T-47D breast,> 25 µM
same,GI50,MDA-MB-231 breast,> 25 µM
same,TGI,MDA-MB-231 breast,> 25 µM
same,GI50,IGROV1 ovarian,> 25 µM
same,TGI,IGROV1 ovarian,> 25 µM
same,GI50,MCF7 breast,> 25 µM
same,TGI,MCF7 breast,> 25 µM
same,GI50,BT-549 breast,> 25 µM
same,TGI,BT-549 breast,> 25 µM
same,GI50,OVCAR-4 ovarian,> 25 µM
same,TGI,OVCAR-4 ovarian,> 25 µM
same,GI50,MALME-3M melanoma,> 25 µM
same,TGI,MALME-3M melanoma,> 25 µM
same,GI50,U251 CNS,> 25 µM
same,TGI,U251 CNS,> 25 µM
same,GI50,SK-MEL-28 melanoma,> 25 µM
same,TGI,SK-MEL-28 melanoma,> 25 µM
same,GI50,MOLT-4 leukemia,> 25 µM
same,TGI,MOLT-4 leukemia,> 25 µM
same,GI50,LOX IMVI melanoma,> 25 µM
same,TGI,LOX IMVI melanoma,> 25 µM
same,GI50,SK-MEL-2 melanoma,> 25 µM
same,TGI,SK-MEL-2 melanoma,> 25 µM
same,GI50,PC-3 prostate,> 25 µM
same,TGI,PC-3 prostate,> 25 µM
same,GI50,RPMI-8226 leukemia,> 25 µM
same,TGI,RPMI-8226 leukemia,> 25 µM
same,GI50,K-562 leukemia,> 25 µM
same,TGI,K-562 leukemia,> 25 µM
same,GI50,A498 renal,13.4 µM
same,TGI,A498 renal,> 25 µM
same,GI50,HL-60(TB) leukemia,> 25 µM
same,TGI,HL-60(TB) leukemia,> 25 µM
same,GI50,786-0 renal,> 25 µM
same,TGI,786-0 renal,> 25 µM
same,GI50,NCI-H226 lung,> 17.1 µM
same,TGI,NCI-H226 lung,> 25 µM
same,GI50,HS 578T breast,> 25 µM
same,TGI,HS 578T breast,> 25 µM
same,GI50,UACC-62 melanoma,> 25 µM
same,TGI,UACC-62 melanoma,> 25 µM
same,GI50,HCC-2998 colon,> 25 µM
same,TGI,HCC-2998 colon,> 25 µM
same,GI50,A549 NSCLC,> 25 µM
same,TGI,A549 NSCLC,> 25 µM
same,GI50,CAKI-1 renal,> 25 µM
same,TGI,CAKI-1 renal,> 25 µM
same,GI50,RXF 393 renal,24.7 µM

# From PubChem BioAssay (NCI)
